The values below come from patent US12084458B2, “Substituted pyridines, pyridazines, and pyrimidines as TYK2 inhibitors” (Sudo Biosciences Limited, priority 2021, dated 2024).

The structures appear in SMILES notation.

Format in all cases: cell-based
Assay [1] concerns HEK-Blue IL-23 cells (IL-23-stimulated STAT3 SEAP reporter; TYK2 JH2). Briefly: HEK-Blue IL-23 SEAP reporter assay for profiling TYK2 pseudokinase (JH2) inhibition. The settings on record: 10 ng/mL human recombinant IL-23, SEAP reporter, read-out: IL23 (TYK2 inhibitory activity, IC50). As for the experimental part:
(§1) Example B-1: HEK-Blue™ IL-23 and IFNα/β Reporter Assays for Profiling TYK2 Pseudokinase (JH2) Inhibition
(§2) HEK-Blue™ IL-23 and IFNα/β cells with a stably-integrated cytokine receptor and STAT3 or STAT1 express STAT-inducible secreted embryonic alkaline phosphatase (SEAP) reporter gene upon cytokine stimulation. These cells are plated in DMEM (Gibco) containing 10% heat-inactivated FBS (Gibco) and 100 U/mL PenStrep (Gibco) at 37° C. under 5% CO2 conditions for 20-22 hours. The cells are then pretreated with serially diluted test compounds for 60 min prior to stimulation with either 10 ng/mL human recombinant IL-23 (Miltenyl Biotech) or 1 ng/mL human recombinant IFNα (InvivoGen) for 22-24 hours for IL-23 or 16-18 h for IFNα. SEAP induction is measured using the QUANTI Blue™ Solution (InvivoGen) according to the manufacturer's instructions.

For assay [2], the system named is HEK-Blue IFNα/β cells (IFNα-stimulated STAT1 SEAP reporter; TYK2 JH2). Briefly: HEK-Blue IFNα/β SEAP reporter assay for profiling TYK2 pseudokinase (JH2) inhibition. On the set-up: IFNα (TYK2 inhibitory activity, IC50): scale not given here. The following applies: 1 ng/mL human recombinant IFNα; for IC50: Homo sapiens, HEK-Blue, read-out: IFNα (TYK2 inhibitory activity, IC50). As for the experimental part: as §1, §2

The test system of assay [3] is HEK-Blue IL-2 reporter cells (IL-2-stimulated STAT5 SEAP reporter). Put plainly: HEK-Blue IL-2 SEAP reporter assay for determining selectivity. The following applies: 4 ng/mL human recombinant IL-2. As for the experimental part:
Example B-3: HEK-Blue™ IL-2 and IFNγ Reporter Assays for Determining Selectivity
HEK-Blue™ IL-2 and IFNγ reporter cells with a stably-integrated cytokine receptor and STAT5 or STAT1 express STAT-inducible secreted embryonic alkaline phosphatase (SEAP) reporter gene upon cytokine stimulation. These cells were plated in DMEM (Gibco) containing 10% heat-inactivated FBS (Gibco) and 100 U/mL PenStrep (Gibco) at 37° C. under 5% CO2 conditions for 20-22 hours. The cells were then pretreated with serially diluted test compounds for 60 min prior to stimulation with either 4 ng/mL human recombinant IL-2 (Miltenyl Biotech) or 50 ng/mL human recombinant IFNγ (InvivoGen) for 24 hours. SEAP induction was measured using the QUANTI-Blue™ Solution (InvivoGen) according to the manufacturer's instructions.

Take `[2H]C([2H])([2H])NC(=O)c1nnc(NC(=O)[C@H]2CC2(F)F)cc1Nc1cccc2c1N(C)Cc1nc(C)nn1-2` [Compound 42, (R)-6-(2,2-difluorocyclopropane-1-carboxamido)-4-((2,5-dimethyl-4,5-dihydro-[1,2,4]triazolo[1,5-a]quinoxalin-6-yl)amino)-N-(methyl-d3)pyridazine-3-carboxamide]: the IC50 in assay [1] and in assay [2] was 30 to 300 nM throughout.
As for `[2H]C([2H])([2H])NC(=O)c1nnc(NC(=O)C2CC2)cc1Nc1cccc2c1N(C)[C@@H](C([2H])([2H])[2H])c1nc(C)nn1-2` [Compound 43, (S)-6-(cyclopropanecarboxamido)-4-((2,5-dimethyl-4-(methyl-d3)-4,5-dihydro-[1,2,4]triazolo[1,5-a]quinoxalin-6-yl)amino)-N-(methyl-d3)pyridazine-3-carboxamide], the results for the IC50 in assay [1] and in assay [2] were 30 to 300 nM and 300 to 1000 nM, respectively.
As for `[2H]C([2H])([2H])NC(=O)c1cnc(NC(=O)N(C)C)cc1Nc1cccc2c1N(C)Cc1nn(C)nc1-2` [Compound 51, 4-((2,5-dimethyl-4,5-dihydro-2H-[1,2,3]triazolo[4,5-c]quinolin-6-yl)amino)-6-(3,3-dimethylureido)-N-(methyl-d3)nicotinamide], the IC50 was less than 30 nM in assay [1] and greater than 1000 nM in assay [3].
In the case of `[2H]C([2H])([2H])NC(=O)c1cnc(NC(=O)C2CC2)c(F)c1Nc1cccc2c1N(C)Cc1nn(C)nc1-2` [Compound 65, 6-(cyclopropanecarboxamido)-4-((2,5-dimethyl-4,5-dihydro-2H-[1,2,3]triazolo[4,5-c]quinolin-6-yl)amino)-5-fluoro-N-(methyl-d3)nicotinamide], the IC50 in assay [1] was in the range of 300 to 1000 nM. Further, the “IFNα (TYK2 inhibitory activity, IC50)” value in assay [2] is reported as “C/D”.
In the case of `[2H]C([2H])([2H])NC(=O)Nc1cc(Nc2cccc3c2N(C)Cc2nn(C)nc2-3)c(C(=O)NC([2H])([2H])[2H])cn1` [Compound 67, 4-((2,5-dimethyl-4,5-dihydro-2H-[1,2,3]triazolo[4,5-c]quinolin-6-yl)amino)-N-(methyl-d3)-6-(3-(methyl-d3)ureido)nicotinamide], the IC50 in assay [1] was less than 30 nM; in assay [2], less than 30 nM; in assay [3], greater than 1000 nM.
In the case of `CNC(=O)c1nnc(Nc2ccc(F)cn2)cc1Nc1cccc2c1OCCCn1cnnc1-2` [Compound 74, 4-((6,7-dihydro-5H-benzo[b][1,2,4]triazolo[3,4-d][1,5]oxazocin-9-yl)amino)-6-((5-fluoropyridin-2-yl)amino)-N-methylpyridazine-3-carboxamide], the IC50 in assay [1] and in assay [2] was greater than 1000 nM each time.
As to `CNC(=O)c1nnc(NC(=O)C2CC2)cc1Nc1cccc2c1OCCCn1cnnc1-2` [Compound 75, 6-(cyclopropanecarboxamido)-4-((6,7-dihydro-5H-benzo[b][1,2,4]triazolo[3,4-d][1,5]oxazocin-9-yl)amino)-N-methylpyridazine-3-carboxamide], the IC50 in assay [1] and in assay [2] was greater than 1000 nM throughout.
Consider `[2H]C([2H])([2H])NC(=O)c1nnc(N2CCN(C(C)C)C2=O)cc1Nc1cccc2c1N(C)Cc1nc(C)nn1-2` [Compound 81, 4-((2,5-dimethyl-4,5-dihydro-[1,2,4]triazolo[1,5-a]quinoxalin-6-yl)amino)-6-(3-isopropyl-2-oxoimidazolidin-1-yl)-N-(methyl-d3)pyridazine-3-carboxamide], for which the IC50 in assay [1] was 30 to 300 nM. The “IFNα (TYK2 inhibitory activity, IC50)” value in assay [2] is listed as “C/D”.
In the case of `[2H]C([2H])([2H])NC(=O)c1cnc(N(C)C(=O)C2CC2)cc1Nc1cccc2c1N(C)Cc1nc(C)nn1-2` [Compound 82, 4-((2,5-dimethyl-4,5-dihydro-[1,2,4]triazolo[1,5-a]quinoxalin-6-yl)amino)-N-(methyl-d3)-6-(N-methylcyclopropanecarboxamido)nicotinamide], the IC50 in assay [1] and in assay [2] was greater than 1000 nM in each case.
Turning to `[2H]C([2H])([2H])NC(=O)c1cnc(NC(=O)C2CC2)cc1Nc1ccnc2c1N(C)Cc1nc(C)nn1-2` [Compound 86, 6-(cyclopropanecarboxamido)-4-((2,5-dimethyl-4,5-dihydropyrido[3,2-e][1,2,4]triazolo[1,5-a]pyrazin-6-yl)amino)-N-(methyl-d3)nicotinamide], the values for the IC50 in assay [1] and in assay [2] were 30 to 300 nM and 300 to 1000 nM, respectively.
On to `[2H]C([2H])([2H])NC(=O)c1nnc(NC(=O)C2CC2)cc1Nc1ccnc2c1N(C)Cc1nc(C)nn1-2` [Compound 87, 6-(cyclopropanecarboxamido)-4-((2,5-dimethyl-4,5-dihydropyrido[3,2-e][1,2,4]triazolo[1,5-a]pyrazin-6-yl)amino)-N-(methyl-d3)pyridazine-3-carboxamide], for which the results for the IC50 in assay [1] and in assay [2] were 30 to 300 nM and 300 to 1000 nM, respectively.
In the case of `[2H]C([2H])([2H])NC(=O)c1nnc(NC(=O)C2CC2)cc1Nc1c(F)ccc2c1N(C)Cc1nc(C)nn1-2` [Compound 98, 6-(cyclopropanecarboxamido)-4-((7-fluoro-2,5-dimethyl-4,5-dihydro-[1,2,4]triazolo[1,5-a]quinoxalin-6-yl)amino)-N-(methyl-d3)pyridazine-3-carboxamide], the IC50 in assay [1] fell in the range of 30 to 300 nM. For the same compound, in assay [2], the “IFNα (TYK2 inhibitory activity, IC50)” value was “C/D”.
As for `[2H]C([2H])([2H])NC(=O)c1nnc(NC(=O)NC)cc1Nc1cc(F)cc2c1N(C)Cc1nc(C)nn1-2` [Compound 103, 4-((8-fluoro-2,5-dimethyl-4,5-dihydro-[1,2,4]triazolo[1,5-a]quinoxalin-6-yl)amino)-N-(methyl-d3)-6-(3-methylureido)pyridazine-3-carboxamide], the IC50 in assay [1] and in assay [2] was 30 to 300 nM in each case.
As for `[2H]C([2H])([2H])NC(=O)c1nnc(NC(=O)C2CC2)cc1Nc1nccc2c1N(C)[C@@H](C)c1nc(C)nn1-2` [Compound 112, (S)-6-(cyclopropanecarboxamido)-N-(methyl-d3)-4-((2,4,5-trimethyl-4,5-dihydropyrido[3,4-e][1,2,4]triazolo[1,5-a]pyrazin-6-yl)amino)pyridazine-3-carboxamide], the IC50 in assay [1] is less than 30 nM; in assay [2], 30 to 300 nM.
Take `[2H]C([2H])([2H])NC(=O)c1nnc(NC(=O)C2CC2)cc1Nc1nccc2c1N(C)[C@@H](C([2H])([2H])[2H])c1nn(C)nc1-2` [Compound 113, (S)-6-(cyclopropanecarboxamido)-4-((2,5-dimethyl-4-(methyl-d3)-4,5-dihydro-2H-[1,2,3]triazolo[4,5-c][1,7]naphthyridin-6-yl)amino)-N-(methyl-d3)pyridazine-3-carboxamide]: the IC50 in assay [1] and in assay [2] was 30 to 300 nM throughout.
Consider `[2H]C([2H])([2H])NC(=O)c1nnc(NC(=O)C2CC2)cc1Nc1nccc2c1N(C)[C@H](C([2H])([2H])[2H])c1nn(C)nc1-2` [Compound 114, (R)-6-(cyclopropanecarboxamido)-4-((2,5-dimethyl-4-(methyl-d3)-4,5-dihydro-2H-[1,2,3]triazolo[4,5-c][1,7]naphthyridin-6-yl)amino)-N-(methyl-d3)pyridazine-3-carboxamide], for which the IC50 in assay [1] and in assay [2] was less than 30 nM each time.
On to `[2H]C([2H])([2H])NC(=O)c1nnc(NC(=O)[C@H]2C[C@H]2F)cc1Nc1nccc2c1N(C)Cc1nn(C)nc1-2` [Compound 115, 4-((2,5-dimethyl-4,5-dihydro-2H-[1,2,3]triazolo[4,5-c][1,7]naphthyridin-6-yl)amino)-6-((1R,2R)-2-fluorocyclopropane-1-carboxamido)-N-(methyl-d3)pyridazine-3-carboxamide], for which the IC50 in assay [1] and in assay [2] was less than 30 nM in each case.
With `[2H]C([2H])([2H])NC(=O)c1nnc(NC(=O)[C@@H]2C[C@@H]2F)cc1Nc1nccc2c1N(C)Cc1nn(C)nc1-2` [Compound 116, 4-((2,5-dimethyl-4,5-dihydro-2H-[1,2,3]triazolo[4,5-c][1,7]naphthyridin-6-yl)amino)-6-((1S,2S)-2-fluorocyclopropane-1-carboxamido)-N-(methyl-d3)pyridazine-3-carboxamide], the results for the IC50 in assay [1] and in assay [2] were 30 to 300 nM and 300 to 1000 nM, respectively.
